The assay addresses T1, human HSL (Homo sapiens, UniProt Q05469).
T1 construct: generate a full length human HSL ORF with a 3′-His6 tag; made in house; host or cells: High 5 insect cells (baculovirus, pFast-BAC)
T1 sequence (Q05469 1-1076): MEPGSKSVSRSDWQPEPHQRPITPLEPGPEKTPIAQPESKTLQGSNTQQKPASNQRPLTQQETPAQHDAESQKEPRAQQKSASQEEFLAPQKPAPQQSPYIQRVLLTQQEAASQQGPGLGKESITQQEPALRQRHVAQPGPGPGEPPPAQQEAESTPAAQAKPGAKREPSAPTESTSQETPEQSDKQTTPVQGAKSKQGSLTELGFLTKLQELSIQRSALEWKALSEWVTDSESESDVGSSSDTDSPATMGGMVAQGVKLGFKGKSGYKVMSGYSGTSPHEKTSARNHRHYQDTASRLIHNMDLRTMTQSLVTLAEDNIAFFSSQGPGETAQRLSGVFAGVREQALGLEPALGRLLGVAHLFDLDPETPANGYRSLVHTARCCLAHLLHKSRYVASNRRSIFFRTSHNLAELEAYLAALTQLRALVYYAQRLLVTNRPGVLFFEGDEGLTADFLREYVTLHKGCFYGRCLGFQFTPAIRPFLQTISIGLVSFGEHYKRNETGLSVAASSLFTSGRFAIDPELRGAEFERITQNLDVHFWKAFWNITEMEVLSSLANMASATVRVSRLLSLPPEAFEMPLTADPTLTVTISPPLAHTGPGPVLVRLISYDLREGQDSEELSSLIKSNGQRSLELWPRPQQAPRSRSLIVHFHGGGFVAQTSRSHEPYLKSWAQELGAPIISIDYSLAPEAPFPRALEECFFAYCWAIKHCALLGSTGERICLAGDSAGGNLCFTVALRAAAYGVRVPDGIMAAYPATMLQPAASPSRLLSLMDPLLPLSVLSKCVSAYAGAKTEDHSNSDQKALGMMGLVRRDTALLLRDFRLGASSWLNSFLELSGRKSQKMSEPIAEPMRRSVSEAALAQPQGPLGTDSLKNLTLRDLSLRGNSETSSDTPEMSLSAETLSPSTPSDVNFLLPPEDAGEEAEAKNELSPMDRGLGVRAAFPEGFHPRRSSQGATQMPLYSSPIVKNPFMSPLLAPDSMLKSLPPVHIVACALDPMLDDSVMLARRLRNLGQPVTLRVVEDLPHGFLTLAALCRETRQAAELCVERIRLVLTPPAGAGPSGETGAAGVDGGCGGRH
Put plainly: Human Hormone-Sensitive Lipase (HSL) enzyme inhibition assay (colorimetric, DMPT substrate). The assay is classed as biochemical. To be noted: human full length HSL-His6, 2,3-dimercapto-1-propanol tributyrate substrate, 37° C. 20 minutes, absorbance at 405 nm; read-out: HSL hum IC50. The gist of the method:
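Full-length human HSL with C-terminal His6, expressed in baculovirus-infected High 5 cells and Ni-NTA purified, was added (15 ug/ml stock) to 1.5 mM DMPT in 100 mM MOPS pH 7.2, 0.2 mg/ml fatty acid-free BSA containing compound. After 20 min at 37 °C, DTNB with SDS/Triton X-100 was added; A405 read after 15 min at RT.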

Structures are written as SMILES.

This note sets out measurements from patent publication US8440710B2, “HSL inhibitors useful in the treatment of diabetes” (Hoffmann-La Roche Inc., priority 2009, dated 2013).

For the compound `CCOC(=O)C[C@]1(O)CC[C@]2(CCN(c3ccc(OC(F)(F)F)cc3)C2=O)CC1` [Example 116, [(5α,8α)-8-Hydroxy-1-oxo-2-(4-trifluoromethoxy-phenyl)-2-aza-spiro[4.5]dec-8-yl]-acetic acid ethyl ester], the IC50 amounted to 10 nM.

With `CCOC[C@]1(O)CC[C@]2(CCN(c3ccc(OC(F)(F)F)cc3)C2=O)CC1` [Example 117, (5α,8α)-8-Ethoxymethyl-8-hydroxy-2-(4-trifluoromethoxy-phenyl)-2-aza-spiro[4.5]decan-1-one], the IC50 amounted to 20 nM.

Regarding `O=C1N(c2ccc(OC(F)(F)F)cc2)CC[C@]12CC[C@@](O)(CCO)CC2` [Example 118, (5α,8α)-8-Hydroxy-8-(2-hydroxy-ethyl)-2-(4-trifluoromethoxy-phenyl)-2-aza-spiro[4.5]decan-1-one], the IC50 is 100 nM.

Turning to `COCC[C@]1(O)CC[C@]2(CCN(c3ccc(OC(F)(F)F)cc3)C2=O)CC1` [Example 119, (5α,8α)-8-Hydroxy-8-(2-methoxy-ethyl)-2-(4-trifluoromethoxy-phenyl)-2-aza-spiro[4.5]decan-1-one], the concentration for half-maximal inhibition (IC50) came out at 30 nM.

Regarding `COCC[C@]1(OC)CC[C@]2(CCN(c3ccc(OC(F)(F)F)cc3)C2=O)CC1` [Example 120, (5α,8α)-8-Methoxy-8-(2-methoxy-ethyl)-2-(4-trifluoromethoxy-phenyl)-2-aza-spiro[4.5]decan-1-one], the IC50 was 100 nM.

As to `COC[C@]1(O)CC[C@]2(CCN(c3ccc(C(F)(F)F)cc3)C2=O)CC1` [Example 121, (5α,8α)-8-Hydroxy-8-methoxymethyl-2-(4-trifluoromethyl-phenyl)-2-aza-spiro[4.5]decan-1-one], the IC50 was 100 nM.

Regarding `CCC[C@]1(O)CC[C@]2(CCN(c3ccc(CCOC)cc3)C2=O)CC1` [Example 122, (5α,8α)-8-Hydroxy-2-[4-(2-methoxy-ethyl)-phenyl]-8-propyl-2-aza-spiro[4.5]decan-1-one], the IC50 stood at 50 nM.

For `COCCc1ccc(N2CC[C@]3(CC[C@@](O)(C(F)(F)F)CC3)C2=O)cc1` [Example 123, (5α,8α)-8-Hydroxy-2-[4-(2-methoxy-ethyl)-phenyl]-8-trifluoromethyl-2-aza-spiro[4.5]decan-1-one], the IC50 was 420 nM.

Turning to `COCCc1ccc(N2CC[C@]3(CC[C@@](O)(CC(C)C)CC3)C2=O)cc1` [Example 124, (5α,8α)-8-Hydroxy-8-isobutyl-2-[4-(2-methoxy-ethyl)-phenyl]-2-aza-spiro[4.5]decan-1-one], the IC50 stood at 20 nM.

`COCCc1ccc(N2CC[C@]3(CC[C@](O)(CC(C)C)CC3)C2=O)cc1` [Example 125, (5α,8β)-8-Hydroxy-8-isobutyl-2-[4-(2-methoxy-ethyl)-phenyl]-2-aza-spiro[4.5]decan-1-one]: the half-inhibitory concentration (IC50) was 1810 nM.

As for `COCCc1ccc(N2CC[C@]3(CC[C@@](O)(CC(C)(C)C)CC3)C2=O)cc1` [Example 126, (5α,8α)-8-(2,2-Dimethyl-propyl)-8-hydroxy-2-[4-(2-methoxy-ethyl)-phenyl]-2-aza-spiro[4.5]decan-1-one], the IC50 was found to be 10 nM.

With `C=C(C)[C@]1(O)CC[C@]2(CCN(c3ccc(CCOC)cc3)C2=O)CC1` [Example 127, (5α,8α)-8-Hydroxy-8-isopropenyl-2-[4-(2-methoxy-ethyl)-phenyl]-2-aza-spiro[4.5]decan-1-one], the IC50 came to 120 nM.

As for `COCCc1ccc(N2CC[C@]3(CC[C@@](O)(C(C)C)CC3)C2=O)cc1` [Example 128, (5α,8α)-8-Hydroxy-8-isopropyl-2-[4-(2-methoxy-ethyl)-phenyl]-2-aza-spiro[4.5]decan-1-one], the IC50 came to 50 nM.

In the case of `CCCC[C@]1(O)CC[C@]2(CCN(c3ccc(CCOC)cc3)C2=O)CC1` [Example 129, (5α,8α)-8-Butyl-8-hydroxy-2-[4-(2-methoxy-ethyl)-phenyl]-2-aza-spiro[4.5]decan-1-one], the IC50 amounted to 20 nM.

For `COCCCc1ccc(N2CC[C@]3(CC[C@@](O)(C(C)C)CC3)C2=O)cc1` [Example 130, (5α,8α)-8-Hydroxy-8-isopropyl-2-(4-(3-methoxypropyl)phenyl)-2-aza-spiro[4.5]decan-1-one], the concentration for half-maximal inhibition (IC50) was found to be 50 nM.

`CC[C@]1(O)CC[C@]2(CCN(c3ccc(C(C)(C)COC)cc3)C2=O)CC1` [Example 131, (5α,8α)-8-Ethyl-8-hydroxy-2-[4-(2-methoxy-1,1-dimethyl-ethyl)-phenyl]-2-aza-spiro[4.5]decan-1-one]: the IC50 came to 90 nM.

As for `CCC[C@]1(O)CC[C@]2(CCN(c3ccc(C(C)(C)COC)cc3)C2=O)CC1` [Example 132, (5α,8α)-8-Hydroxy-2-[4-(2-methoxy-1,1-dimethyl-ethyl)-phenyl]-8-propyl-2-aza-spiro[4.5]decan-1-one], the IC50 came to 20 nM.

With `CCC[C@]1(O)CC[C@]2(CCN(c3ccc([C@H](O)C(F)(F)F)cc3)C2=O)CC1` [Example 133a, (5α,8α)-8-Hydroxy-8-propyl-2-[4-((S)-2,2,2-trifluoro-1-hydroxy-ethyl)-phenyl]-2-aza-spiro[4.5]decan-1-one], the IC50 came to 50 nM.

Consider `CCC[C@]1(O)CC[C@]2(CCN(c3ccc([C@@H](O)C(F)(F)F)cc3)C2=O)CC1` [Example 133b, (5α,8α)-8-Hydroxy-8-propyl-2-[4-((R)-2,2,2-trifluoro-1-hydroxy-ethyl)-phenyl]-2-aza-spiro[4.5]decan-1-one], for which the IC50 is 30 nM.

Regarding `CCC[C@]1(O)CC[C@@]2(CCN(c3ccc(C(O)C(F)(F)F)cc3)C2=O)CC1` (stereo partly drawn) [Example 134, (5α,8β)-8-Hydroxy-8-propyl-2-(4-(2,2,2-trifluoro-1-hydroxyethyl)phenyl)-2-aza-spiro[4.5]decan-1-one], the IC50 worked out at 1180 nM.

Consider `CC(C)[C@]1(O)CC[C@]2(CCN(c3ccc([C@@H](O)C(F)(F)F)cc3)C2=O)CC1` [Example 135, (5α,8α)-8-Hydroxy-8-isopropyl-2-[4-((R)-2,2,2-trifluoro-1-hydroxy-ethyl)-phenyl]-2-aza-spiro[4.5]decan-1-one], for which the IC50 is 20 nM.

Take `CC(C)[C@]1(O)CC[C@@]2(CCN(c3ccc([C@@H](O)C(F)(F)F)cc3)C2=O)CC1` [Example 136, (5α,8β)-8-Hydroxy-8-isopropyl-2-(4-((R)-2,2,2-trifluoro-1-hydroxy-ethyl)-phenyl)-2-aza-spiro[4.5]decan-1-one]: the IC50 came out at 2760 nM.

In the case of `CO[C@H](c1ccc(N2CC[C@]3(CC[C@@](O)(C(C)C)CC3)C2=O)cc1)C(F)(F)F` [Example 137, (5α,8α)-8-Hydroxy-8-isopropyl-2-(4-((R)-2,2,2-trifluoro-1-methoxyethyl)phenyl)-2-aza-spiro[4.5]decan-1-one], the IC50 was 10 nM.

As for `COC[C@]1(O)CC[C@]2(CCN(c3ccc([C@@H](O)C(F)(F)F)cc3)C2=O)CC1` [Example 138, (5α,8α)-8-Hydroxy-8-(methoxymethyl)-2-(4-((R)-2,2,2-trifluoro-1-hydroxyethyl)phenyl)-2-aza-spiro[4.5]decan-1-one], the concentration for half-maximal inhibition (IC50) was 100 nM.

For the compound `COC[C@]1(O)CC[C@]2(CCN(c3ccc([C@@H](OC)C(F)(F)F)cc3)C2=O)CC1` [Example 139, (5α,8α)-8-Hydroxy-8-(methoxymethyl)-2-(4-((R)-2,2,2-trifluoro-1-methoxyethyl)phenyl)-2-aza-spiro[4.5]decan-1-one], the IC50 turned out to be 40 nM.

The term IC50 denotes the midpoint of a concentration-inhibition curve.
